Assay results published in patent US10227357B2, “Compounds and methods for kinase modulation, and indications therefor” (Plexxikon Inc., priority 2012, dated 2019).

What follows are molecules tested against T1, c-kit kinase (Homo sapiens, UniProt P10721) (assay: c-Kit biochemical assay, AlphaScreen, 10 μM ATP). Conditions: c-kit biochemical inhibitory activity; read-out: Biochemical activity (IC50 μM) Kit.
T1 construct: The c-kit (or kinase domain thereof) is an active kinase in AlphaScreen; poly-Histidine tag (in-house protein only) (cleaved yes); host or cells: E. coli BL21(DE3)RIL, co-expressed with PTP1B
Procedure: IC50 values are determined with respect to inhibition of c-Kit kinase activity, where inhibition of phosphorylation of a peptide substrate is measured as a function of compound concentration. Compounds to be tested were dissolved in DMSO to a concentration of 20 mM. These were diluted 30 μl into 120 μl of DMSO (4 mM) and 1 μl was added to an assay plate. These were then serially diluted 1:3 (50 μl to 100 μl DMSO) for a total of 8 points. Plates were prepared such that each kinase reaction is 20 μl in 1× kinase buffer (50 mM HEPES, pH 7.2, 5 mM MgCl2, 5 mM MnCl2, 0.01% NP-40, 0.2% BSA), 5% DMSO and 10 μM ATP. […] C-kit kinase was at 0.1 ng per sample. After incubation of the kinase reaction for 1 hour at room temperature, 5 μl of donor beads (Streptavidin coated beads (Perkin Elmer Life Science) final concentration 1 μg/ml) in stop buffer (50 mM EDTA in 1× kinase buffer) was added, the sample was mixed and incubated for 20 minutes at room temperature before adding 5 μl of acceptor beads (PY20 coated beads (Perkin Elmer Life Science) final concentration 1 μg/ml) in stop buffer. The samples were incubated for 60 minutes at room temperature and the signal per well was read on AlphaQuest reader. […] The signal vs. compound concentration was used to determine the IC50.
Complementary DNA cloned from various human tissues were purchased from Invitrogen, and these were used as substrates in the PCR reactions. Specific custom synthetic oligonucleotide primers were designed to initiate the PCR product, and also to provide the appropriate restriction enzyme cleavage sites for ligation with the plasmids. The entire sequence encoding the enzyme was made through a gene synthesis procedure, using custom synthetic oligonucleotides covering the entire coding sequence (Invitrogen, see below).
The plasmid used for ligation with the kinase-encoding inserts was derivative of pET (Novagen) for expression using E. coli. The Kit kinase was engineered to include a Histidine tag for purification using metal affinity chromatography. The kinase-encoding plasmid was engineered as bicistronic mRNA to co-express a second protein that modifies the kinase protein during its expression in the host cell. Protein tyrosine phosphatase 1B (PTP), was co-expressed for dephosphorylation of the phospho-Tyrosines.
For protein expression, the plasmid containing the Kit gene was transformed into E. coli strains BL21(DE3)RIL and transformants selected for growth on LB agar plates containing appropriate antibiotics. Single colonies were grown overnight at 37° C. in 200 ml TB (Terrific broth) media. 16×1 L of fresh TB media in 2.8 L flasks were inoculated with 10 ml of overnight culture and grown with constant shaking at 37° C. Once cultures reached an absorbance of 1.0 at 600 nm, IPTG was added and cultures were allowed to grow for a further 12 to 18 hrs at temperatures ranging from 12-30° C. Cells were harvested by centrifugation and pellets frozen at […] until ready for lysis.
For protein Purification; frozen E. coli cell pellets were resuspended in lysis buffer and lysed using standard mechanical methods. Protein was purified via poly-Histidine tags using immobilized metal affinity purification IMAC. The Kit kinase was purified using a 3 step purification process utilizing; IMAC, size exclusion chromatography and ion exchange chromatography. The poly-Histidine tag was removed using Thrombin (Calbiochem).

T1 sequence (P10721 26-976): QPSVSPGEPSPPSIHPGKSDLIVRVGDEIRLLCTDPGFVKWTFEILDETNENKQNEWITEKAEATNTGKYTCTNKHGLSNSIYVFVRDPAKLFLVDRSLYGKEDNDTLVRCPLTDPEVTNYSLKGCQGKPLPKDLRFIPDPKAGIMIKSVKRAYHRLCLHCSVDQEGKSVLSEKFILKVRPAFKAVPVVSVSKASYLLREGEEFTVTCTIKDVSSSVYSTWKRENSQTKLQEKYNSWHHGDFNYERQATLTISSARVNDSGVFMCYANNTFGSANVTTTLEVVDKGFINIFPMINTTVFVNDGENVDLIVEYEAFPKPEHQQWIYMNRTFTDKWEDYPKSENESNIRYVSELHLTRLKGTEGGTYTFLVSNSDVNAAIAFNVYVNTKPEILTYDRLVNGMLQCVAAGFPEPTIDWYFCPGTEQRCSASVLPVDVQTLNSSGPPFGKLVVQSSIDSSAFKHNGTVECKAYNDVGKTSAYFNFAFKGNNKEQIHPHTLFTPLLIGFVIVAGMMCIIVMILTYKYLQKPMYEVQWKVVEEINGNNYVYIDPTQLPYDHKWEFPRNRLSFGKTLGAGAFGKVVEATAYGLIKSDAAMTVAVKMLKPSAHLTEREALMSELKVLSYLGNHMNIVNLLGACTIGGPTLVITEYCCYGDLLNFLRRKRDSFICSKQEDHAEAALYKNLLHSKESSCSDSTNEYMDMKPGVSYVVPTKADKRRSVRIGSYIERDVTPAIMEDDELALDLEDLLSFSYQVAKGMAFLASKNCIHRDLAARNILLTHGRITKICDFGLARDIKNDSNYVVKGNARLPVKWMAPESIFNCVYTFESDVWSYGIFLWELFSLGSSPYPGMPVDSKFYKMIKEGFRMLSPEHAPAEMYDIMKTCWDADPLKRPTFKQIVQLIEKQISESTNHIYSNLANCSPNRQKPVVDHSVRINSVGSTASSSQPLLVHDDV

| SMILES | IC50 [µM] |
| --- | --- |
| O=C(NCc1ccc(F)cc1)N1CCN(c2ncnc3[nH]c(CC4CC4)cc23)CC1 [P-0210, 4-[6-(cyclopropylmethyl)-7H-pyrrolo[2,3-d]pyrimidin-4-yl]-N-[(4-fluorophenyl)methyl]piperazine-1-carboxamide] | 10 to 200 |
| Fc1ccc(-c2cc3c(-c4cccnc4C(F)(F)F)ncnc3[nH]2)cc1 [P-0374, 6-(4-fluorophenyl)-4-[2-(trifluoromethyl)-3-pyridyl]-7H-pyrrolo[2,3-d]pyrimidine] | 10 to 200 |
| O=C(c1cc2c(N3CCN(C(=O)NCc4ccc(F)cc4)CC3)ncnc2[nH]1)C1CC1 [P-0209, 4-[6-(cyclopropanecarbonyl)-7H-pyrrolo[2,3-d]pyrimidin-4-yl]-N-[(4-fluorophenyl)methyl]piperazine-1-carboxamide] | 1 to 10 |
| O=C(NC1CCCCC1)NC1CCN(c2ncnc3[nH]ccc23)CC1 [P-0537, 1-cyclohexyl-3-[1-(7H-pyrrolo[2,3-d]pyrimidin-4-yl)-4-piperidyl]urea] | 10 to 200 |
| C[C@H]1CN(c2ncnc3[nH]c(-c4ccncc4)cc23)CCN1C(=O)Nc1ccc(OC(F)(F)F)cc1 [P-0043, (2S)-2-methyl-4-[6-(4-pyridyl)-7H-pyrrolo[2,3-d]pyrimidin-4-yl]-N-[4-(trifluoromethoxy)phenyl]piperazine-1-carboxamide] | 0.0001 to 1 |
| Cn1cc(-c2cc3ncnc(N4CCN(C(=O)Nc5ccccc5)CC4)c3s2)cn1 [P-0627, 4-[6-(1-methylpyrazol-4-yl)thieno[3,2-d]pyrimidin-4-yl]-N-phenyl-piperazine-1-carboxamide] | 1 to 10 |
| O=C(C1CCCCC1)N1CCN(c2ncnc3[nH]ccc23)CC1 [P-0195, cyclohexyl-[4-(7H-pyrrolo[2,3-d]pyrimidin-4-yl)piperazin-1-yl]methanone] | 10 to 200 |
| CC(C)(C)c1cc2ncnc(N3CCN(C(=O)NCc4ccc(F)cc4)CC3)c2s1 [P-0637, 4-(6-tert-butylthieno[3,2-d]pyrimidin-4-yl)-N-[(4-fluorophenyl)methyl]piperazine-1-carboxamide] | 10 to 200 |
| O=C(c1ccccc1)N1CCN(c2ncnc3[nH]ccc23)CC1 [P-0198, phenyl-[4-(7H-pyrrolo[2,3-d]pyrimidin-4-yl)piperazin-1-yl]methanone] | 10 to 200 |
| CCCC(=O)N1CCN(c2ncnc3[nH]ccc23)CC1 [P-0194, 1-[4-(7H-pyrrolo[2,3-d]pyrimidin-4-yl)piperazin-1-yl]butan-1-one] | 10 to 200 |
| COc1ccc(NC(=O)N2CCN(c3ncnc4[nH]c(-c5ccccc5)cc34)CC2)cc1 [P-0240, N-(4-methoxyphenyl)-4-(6-phenyl-7H-pyrrolo[2,3-d]pyrimidin-4-yl)piperazine-1-carboxamide] | 10 to 200 |
| Cc1ccc(S(=O)(=O)Nc2ccc(-c3cc4ncnc(N5CCN(C(=O)Nc6ccccc6)CC5)c4s3)cc2)cc1 [P-0625, N-phenyl-4-[6-[4-(p-tolylsulfonylamino)phenyl]thieno[3,2-d]pyrimidin-4-yl]piperazine-1-carboxamide] | 10 to 200 |
| O=C(NC1CCN(c2ncnc3[nH]ccc23)CC1)c1ccccc1 [P-0531, N-[1-(7H-pyrrolo[2,3-d]pyrimidin-4-yl)-4-piperidyl]benzamide] | 10 to 200 |
| O=S(=O)(NC1CCN(c2ncnc3[nH]ccc23)CC1)c1ccccc1 [P-0533, N-[1-(7H-pyrrolo[2,3-d]pyrimidin-4-yl)-4-piperidyl]benzenesulfonamide] | 10 to 200 |
| Cc1ccc(-c2cc3c(N4CCC(NS(=O)(=O)c5ccc(OC(F)(F)F)cc5)CC4)ncnc3[nH]2)cn1 [P-0459, N-[1-[6-(6-methyl-3-pyridyl)-7H-pyrrolo[2,3-d]pyrimidin-4-yl]-4-piperidyl]-4-(trifluoromethoxy)benzenesulfonamide] | 10 to 200 |
| C[C@H]1CN(c2ncnc3[nH]c(-c4ccncc4)cc23)CCN1C(=O)Nc1ccc(N(C)C)cc1 [P-0046, (2S)-N-(4-dimethylaminophenyl)-2-methyl-4-[6-(4-pyridyl)-7H-pyrrolo[2,3-d]pyrimidin-4-yl]piperazine-1-carboxamide] | 1 to 10 |
| O=C(NC1CCCCC1)N1CCN(c2ncnc3[nH]ccc23)CC1 [P-0204, N-cyclohexyl-4-(7H-pyrrolo[2,3-d]pyrimidin-4-yl)piperazine-1-carboxamide] | 10 to 200 |

| SMILES | IC50 [µM] |
| --- | --- |
| Cc1ccccc1C(=O)c1c[nH]c2ncnc(N3CCN(c4cc(NC5CC5)ncn4)CC3)c12 [P-0206, [4-[4-[6-(cyclopropylamino)pyrimidin-4-yl]piperazin-1-yl]-7H-pyrrolo[2,3-d]pyrimidin-5-yl]-(o-tolyl)methanone] | 10 to 200 |
| CCCC(=O)NC1CCN(c2ncnc3[nH]ccc23)CC1 [P-0527, N-[1-(7H-pyrrolo[2,3-d]pyrimidin-4-yl)-4-piperidyl]butanamide] | 10 to 200 |
| CCCS(=O)(=O)NC1CCN(c2ncnc3[nH]ccc23)CC1 [P-0532, N-[1-(7H-pyrrolo[2,3-d]pyrimidin-4-yl)-4-piperidyl]propane-1-sulfonamide] | 10 to 200 |
| Fc1ccc(-c2cc3c(-c4ccncc4)ncnc3[nH]2)cc1 [P-0392, 6-(4-fluorophenyl)-4-(4-pyridyl)-7H-pyrrolo[2,3-d]pyrimidine] | 0.0001 to 1 |
| O=S(=O)(NC1CCN(c2ncnc3[nH]c(-c4cc(Cl)cs4)cc23)CC1)c1ccc(OC(F)(F)F)cc1 [P-0670, N-[1-[6-(4-chloro-2-thienyl)-7H-pyrrolo[2,3-d]pyrimidin-4-yl]-4-piperidyl]-4-(trifluoromethoxy)benzenesulfonamide] | 10 to 200 |
| O=C(C1CCCC1)N1CCN(c2ncnc3[nH]ccc23)CC1 [P-0196, cyclopentyl-[4-(7H-pyrrolo[2,3-d]pyrimidin-4-yl)piperazin-1-yl]methanone] | 10 to 200 |
| CCCCNS(=O)(=O)c1ccc(-c2ncnc3[nH]c(-c4ccc(F)cc4)cc23)cc1 [P-0421, N-butyl-4-[6-(4-fluorophenyl)-7H-pyrrolo[2,3-d]pyrimidin-4-yl]benzenesulfonamide] | 10 to 200 |
| CCCNC(=O)N1CCN(c2ncnc3[nH]ccc23)CC1 [P-0203, N-propyl-4-(7H-pyrrolo[2,3-d]pyrimidin-4-yl)piperazine-1-carboxamide] | 10 to 200 |
| C[C@H](NC(=O)N1CCN(c2ncnc3ccsc23)CC1(C)C)c1cccc(Cl)c1 [P-0682, N-[(1S)-1-(3-chlorophenyl)ethyl]-2,2-dimethyl-4-thieno[3,2-d]pyrimidin-4-yl-piperazine-1-carboxamide] | 10 to 200 |
| CS(=O)(=O)c1ccc(-c2ncnc3[nH]c(-c4ccc(F)cc4)cc23)cc1 [P-0391, 6-(4-fluorophenyl)-4-(4-methylsulfonylphenyl)-7H-pyrrolo[2,3-d]pyrimidine] | 1 to 10 |
| CCc1ccc(NC(=O)N2CCN(c3ncnc4[nH]ccc34)CC2)cc1 [P-0202, N-(4-ethylphenyl)-4-(7H-pyrrolo[2,3-d]pyrimidin-4-yl)piperazine-1-carboxamide] | 10 to 200 |
| CCc1ccc(C(=O)NC2CCN(c3ncnc4[nH]ccc34)CC2)cc1 [P-0530, 4-ethyl-N-[1-(7H-pyrrolo[2,3-d]pyrimidin-4-yl)-4-piperidyl]benzamide] | 10 to 200 |
| Cn1cc(-c2cc3c(C4=CCC(NS(=O)(=O)c5ccc(OC(F)(F)F)cc5)CC4)ncnc3[nH]2)cn1 (stereo not drawn) [P-0545, N-[4-[6-(1-methylpyrazol-4-yl)-7H-pyrrolo[2,3-d]pyrimidin-4-yl]cyclohex-3-en-1-yl]-4-(trifluoromethoxy)benzenesulfonamide] | 1 to 10 |
| O=C(NC1CCCC1)NC1CCN(c2ncnc3[nH]ccc23)CC1 [P-0526, 1-cyclopentyl-3-[1-(7H-pyrrolo[2,3-d]pyrimidin-4-yl)-4-piperidyl]urea] | 10 to 200 |
| CCc1ccc(NC(=O)NC2CCN(c3ncnc4[nH]ccc34)CC2)cc1 [P-0535, 1-(4-ethylphenyl)-3-[1-(7H-pyrrolo[2,3-d]pyrimidin-4-yl)-4-piperidyl]urea] | 1 to 10 |
| CCOc1ccc(NC(=O)N2CCN(c3ncnc4[nH]ccc34)CC2)cc1 [P-0201, N-(4-ethoxyphenyl)-4-(7H-pyrrolo[2,3-d]pyrimidin-4-yl)piperazine-1-carboxamide] | 1 to 10 |
